The source of these data is patent US7022737B2, “Manipulating nitrosative stress to kill pathologic microbes, pathologic helminths and pathologically proliferating cells or to upregulate nitrosative stress defenses” (Duke University, priority 1996, dated 2006).

Counter-ions that a name gives are not always drawn.

The test system of one data set is E. coli. In words: Patients with E. coli septicemia. The class given is in vivo. As to the method: A person with fever, mild hypotension, and moderate hematuria has blood and urine cultures that are positive for E. coli. They are given a diagnosis of E. coli septicemia and urinary tract infection. […]
A person with E. coli sepsis presents feeling nauseated and gravely ill. However, their blood pressure is stable. They receive a standard regimen of IV antibiotics, including ampicillin and gentamicin as well as the siderophore ferrioxamine B at a dose of 10 mg/kg.
A person with E. coli sepsis presents with a blood pressure of 80/50 mm Hg. Broad spectrum antibiotics are initiated including ampicillin and gentamicin. […] The patient then receives an intravenous dose of nitrosated chloramphenicol, 12.5 mg four times/day IV together with methylene blue IV at a dose of 5 mg/kg as well as fluid support.

Data set [1] concerns Mycobacterium tuberculosis. Conditions: in vivo.
The target in data set [2] is T1, gamma-glutamylcysteinyl synthetase (gamma-GCS) (Rattus norvegicus, UniProt P19468).
T1 sequence (P19468 1-637): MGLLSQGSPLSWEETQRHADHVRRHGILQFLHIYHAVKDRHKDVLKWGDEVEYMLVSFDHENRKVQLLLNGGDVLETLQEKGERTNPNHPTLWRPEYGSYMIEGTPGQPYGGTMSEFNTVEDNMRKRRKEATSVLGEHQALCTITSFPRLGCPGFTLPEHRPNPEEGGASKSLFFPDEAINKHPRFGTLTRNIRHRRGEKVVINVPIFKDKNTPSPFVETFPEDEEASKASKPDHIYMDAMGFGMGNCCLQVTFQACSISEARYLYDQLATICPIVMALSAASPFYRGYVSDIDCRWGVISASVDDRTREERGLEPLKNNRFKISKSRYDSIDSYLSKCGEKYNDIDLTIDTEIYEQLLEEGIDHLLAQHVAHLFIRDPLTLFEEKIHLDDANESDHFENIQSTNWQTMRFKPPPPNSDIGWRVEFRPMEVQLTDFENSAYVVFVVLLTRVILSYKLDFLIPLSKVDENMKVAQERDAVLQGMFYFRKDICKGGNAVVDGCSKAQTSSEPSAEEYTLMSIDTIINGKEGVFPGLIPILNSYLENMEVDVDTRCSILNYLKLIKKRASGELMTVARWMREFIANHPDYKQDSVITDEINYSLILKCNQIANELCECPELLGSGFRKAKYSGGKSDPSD
T1 sequence (P48508 1-274 partner): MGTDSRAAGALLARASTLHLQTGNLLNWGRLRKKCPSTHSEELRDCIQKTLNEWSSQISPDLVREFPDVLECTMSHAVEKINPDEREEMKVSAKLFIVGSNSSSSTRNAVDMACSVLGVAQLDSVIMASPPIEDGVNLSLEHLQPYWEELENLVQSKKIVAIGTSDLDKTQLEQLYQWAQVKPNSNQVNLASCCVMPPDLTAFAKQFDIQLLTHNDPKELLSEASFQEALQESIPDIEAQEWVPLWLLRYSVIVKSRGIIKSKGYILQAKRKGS
As to conditions: mammalian systems, literature; cited from earlier work.

The next data set deals with glutamine synthetase. As to conditions: mammalian systems, literature; cited from earlier work.
For data set [3], the system named is wild type E. coli and glutathione deficient E. coli. In words: Bacterial growth (O.D. 600 nm) with nitrosating agent. The class given is cell-based. As to the method:
In a first experiment, six runs were carried out. In three of the runs, wild type E. coli were incubated in bacterial growth medium. In the other three runs, E. coli lacking a gene essential for glutathione production (in particular, lacking a gene expressing gamma-glutamylcysteine synthetase, hereinafter glutathione deficient E. coli) were incubated in the bacterial growth medium. In one run, for each of the wild type E. coli and the glutathione deficient E. coli, no nitrosating agent was employed. In one run, for each of the wild type E. coli and the glutathione deficient E. coli, 0.5 mM S-nitrosocysteine (a nitrosating agent) was added after two hours. In one run, for each of the wild type E. coli and the glutathione deficient E. coli, 0.2 mM S-nitrosocysteine was added initially and 0.5 mM S-nitrosocysteine was added at the two hour mark. In each run, starting at the two hour mark and every 15 or 30 minutes thereafter, bacterial cell density (i.e., growth) was measured. […]
In a second experiment, six runs were carried out the same as in the first experiment. In this case, the results are shown in FIG. 2 where bacterial growth (measured as optical density (O.D.) 600 nm) is plotted on a log axis versus time (after two hours) and where “wt” and the plus and minus sign mean the same as in FIG. 1 and “gsh^−” means glutathione deficient E. coli. […]

Data set [4] concerns restenosis. In words: Patients with coronary stenosis treated to prevent restenosis. The format is in vivo.
The subject of data set [5] is benign prostatic hypertrophy. The experiment in a line: Patients with benign prostatic hypertrophy. The format is in vivo. As to conditions: prostate-implanted polymer pellets releasing each agent at 1 μmol/hr. The text has this: A person presents with a history of urinary hesitancy and multiple awakenings during the night. They are given a diagnosis of benign prostatic hypertrophy. Under stereotactic guidance, the patient's enlarged prostate gland is implanted with several porus polymer pellets designed to slowly release L-buthionine-S-sulfoximine (1 μmol/hr) and S-nitrosocysteine (1 μmol/hr). […] They then have nearly normal urine flow and usually wakes no more than once per night.
A similar patient with benign prostatic hypertrophy and very marked enlargement of their prostate is treated with NO-substituted finasteride (NO-substituted Proscar; 5 mg/day). NO-substitution is accomplished by replacement of the tert-butyl amine moiety of finasteride with S-nitroso-β-thio-tert-butyl amine.
A person with benign prostatic hypertrophy is treated with Finisteride (Proscar: 5 mg/day) and oral buthionine-S-sulfoximine at a dose of 10 mmol/kg four time/day.

Data set [6] has as its system restenosis. In words: Patients with coronary stenosis treated to prevent restenosis. The class given is in vivo. The text has this:
BSO therapy is continued for one week.
A person with blue eyes and gray hair presents with chest pain. […] The patient undergoes balloon angioplasty and placement of a Palmaz-Schatz stent, which is P^32-implanted and coated with a cyclodextran polymer to which BSO is attached by an ester linkage.
A patient similar to the one described above undergoes balloon angioplasty and placement of a Palmaz-Schatz stent which is coated with cyclodextran polymer to which ethyl maleate is attached by an ester linkage. […]
A person with restenosis six months post angioplasty has a Palmaz-Schatz stent placed. The stent is coated with a porous polymer containing 10% of the siderophore ferrioxamine B and 0.1% each of interleukin-1 and interferon-gamma. The latter agents induce the local expression of the inducible isoform of nitric oxide synthase. […]
The source holds these as a separate data set.

A further data set relates to Salmonella. In words: Patients with Salmonella septicemia or gastroenteritis. The class given is in vivo. Conditions: septicemia; sodium nitrate 200 mg/kg i.v. twice a day and ethacrynic acid 50 mg four times a day p.o.
[7] abbreviates: 32P-implanted stent, S-nitrosocysteine and ethacrynic acid 50–200 mg twice a day p.o.
The mark [8] stands for this setting: stent coated with porous polymer containing 10% ferrioxamine B and 0.1% each of interleukin-1 and interferon-gamma.

In the case of `CN(C)c1ccc2nc3ccc(=[N+](C)C)cc-3sc2c1` [methylene blue], the “time to restored blood pressure” value in the data set with E. coli (nitrosated chloramphenicol 12.5 mg four times/day IV with methylene blue IV 5 mg/kg and fluid support) came to 24 h. On to `CC[C@@H](CO)NCCN[C@@H](CC)CO` [ethambutol], for which the adverse effects result in data set [1] is “loss of color vision and gastrointestinal intolerance”.

On to `CCC[S@](=N)(=O)CCC(N)C(=O)O` (mixture of isomers) [DL-prothionine-SR-sulfoximine], for which the “inhibition of gamma-GCS” value in [2] is listed as “inhibited”. For the same molecule, the “inhibition of glutamine synthetase” value in the data set on glutamine synthetase is “did not significantly inhibit”. Regarding `N[C@@H](CSN=O)C(=O)O` [S-nitrosocysteine], the “effect of pretreatment on later treatment” value in data set [3] (0.2 mM pretreatment, 0.5 mM at two hours) is recorded as “Induces Resistance to Later Treatment with Nitrosating Agent”. Also, the bacterial growth entry in [3] (0.5 mM added at two hours, with or without 0.2 mM pretreatment) is given as “reduces rate of bacterial growth”. Also, the clinical outcome was “symptoms improve” in the data set with restenosis [4] (setting [7]); “follow-up angiogram shows no restenosis” in the data set on restenosis [4] (BSO-releasing polymer stent and S-nitrosocysteine 100 nmol/kg intracoronary infusion); “successfully prevents restenosis” in the data set with restenosis [4] (S-nitrosocysteine 100 nmol/kg six times a day for one week intracoronary, 32P-implanted stent); “symptoms improve over a period of three weeks” in data set [5]; “partial remission in their disease accompanied by mild hypotension” in the data set on E. coli (100 nmol/kg i.v. alone); “relief of hypotension and complete resolution of septicemia” with E. coli (S-nitrosocysteine continued plus desferoximine 1 gm then 0.5 gm every 4 hr for two days). Turning to interleukin-1, the clinical outcome in the data set with restenosis [6] (setting [8]) is given as “restenosis does not occur”.

For the molecule `CC(=O)N([O-])CCCCCNC(=O)CCC(=O)N([O-])CCCCCNC(=O)CCC(=O)N([O-])CCCCCN.[Fe+3]` [ferrioxamine B], the clinical outcome in the data set with restenosis [6] (setting [8]) is “restenosis does not occur”; in the data set on E. coli (10 mg/kg with IV ampicillin and gentamicin) it was “does not develop the clinical syndrome of hypotension and organ failure”.

For the molecule `CCOC(=O)/C=C\C(=O)OCC` [ethyl maleate], in the data set on restenosis [6] (stent coated with cyclodextran polymer with ethyl maleate attached by ester linkage), the clinical outcome is listed as “clinical restenosis does not occur”. Regarding “interferon-gamma: cytokine inducing inducible nitric oxide synthase”, the clinical outcome in the data set with restenosis [6] (setting [8]) is “restenosis does not occur”. With `C=C(CC)C(=O)c1ccc(OCC(=O)O)c(Cl)c1Cl` [ethacrynic acid], the clinical outcome in the data set with Salmonella is on record as “symptoms resolve in two days”; in the data set on restenosis [4] (setting [7]) it was “symptoms improve”. As for `N[C@@H](Cc1ccc(N(CCCl)CCCl)cc1)C(=O)O` [melphalan], the results for the clinical outcome (in the data set with restenosis [6] (stent coated with ONO-substituted polymer with 10% melphalan attached); in [1] (po)) were “clinical restenosis does not occur” and “symptoms resolve”, respectively. Take `C[C@@H]1[C@H](O)[C@@H](C)/C=C/C=C/C=C/C=C/C=C/C=C/C=C/[C@H](O[C@@H]2O[C@H](C)[C@@H](O)[C@H](N)[C@@H]2O)C[C@@H]2O[C@](O)(C[C@@H](O)C[C@@H](O)[C@H](O)CC[C@@H](O)C[C@@H](O)CC(=O)O[C@H]1C)C[C@H](O)[C@H]2C(=O)O` [amphotericin B]: the adverse effects result in the data set on Histoplasma capsulatum (1 mg/day i.v., after one week) is “elevated blood urea nitrogen level and other evidence of renal failure”. In addition, the clinical outcome in the data set with Histoplasma capsulatum (dose reduced to 0.5 mg/day) was “no resolution of disease”. As for `CS(=N)(=O)CC[C@H](N)C(=O)O` (some centres unmarked) [methionine sulfoximine], the “inhibition of gamma-GCS” value in data set [2] is on record as “potently inhibits”. Moreover, the “inhibition of glutamine synthetase” value in the data set with glutamine synthetase was “potently inhibits”.

With `CCC(N)(CCS(C)(=N)=O)C(=O)O` (racemic) [α-ethyl-DL-methionine-SR-sulfoximine], the “inhibition of gamma-GCS” value in data set [2] is recorded as “did not significantly inhibit”. The “inhibition of glutamine synthetase” value in the data set on glutamine synthetase is recorded as “inhibited”.

With `CC(C[C@H](N)C(=O)O)SN=O` (stereo partly drawn) [S-nitroso-gamma-methyl-L-homocysteine], the clinical outcome in the data set with E. coli (septicemia and urinary tract infection, α-ethyl BSO 4 mmol/kg four times a day p.o., S-nitroso-gamma-methyl-L-homocysteine 50 μg/kg i.v., gentamicin) is “symptoms resolve and blood and urine cultures are negative for E. coli after two weeks”. Turning to `O=[N+]([O-])[O-].[Na+]` [sodium nitrate], in the data set with Salmonella, the clinical outcome was “symptoms resolve in two days”.
